Values of other authors in patent US10984362B2, “Methods for post-harvest crop pest management” (priority 2017, dated 2021).
Like-named read-outs stand apart in the source and are kept apart here.

Experiments:
[1] = system: tobacco moth and susceptible cigarette beetle; conditions: 100% control of all development stages
[2] = system: resistant cigarette beetle; conditions: 100% control of all development stages
[3] = tobacco temperature 16-20 °C (61-68 °F), 300 ppm phosphine at the bale/case centre

## P [Phosphine, phosphine]
[1]; [3]
  Minimum Exposure Time: 6 days
[1]; tobacco temperature >20 °C (>68 °F), 200 ppm phosphine at the bale/case centre
  Minimum Exposure Time: 4 days
[2]; [3]
  Minimum Exposure Time: 12 days
[2]; tobacco temperature 20-25 °C (68-77 °F), 300 ppm phosphine at the bale/case centre
  Minimum Exposure Time: 12 days
[2]; tobacco temperature 20-25 °C (68-77 °F), 700 ppm phosphine at the bale/case centre
  Minimum Exposure Time: 10 days
[2]; tobacco temperature >25 °C (>77 °F), 300 ppm phosphine at the bale/case centre
  Minimum Exposure Time: 12 days
[2]; tobacco temperature >25 °C (>77 °F), 600 ppm phosphine at the bale/case centre
  Minimum Exposure Time: 6 days
